Experimental data as given in patent publication US9216992B2, “Thieno[3,2-c]pyridine potassium channel inhibitors” (Xention Limited, priority 2005, dated 2015).

Assays:
human Kv1.3 = target: T1, human Kv1.3 (Homo sapiens, UniProt P22001); assay: Kv1.3 Autopatch Electrophysiology; type: cell-based; conditions: 1 μM compound, CHO cells stably transfected with human Kv1.3, AutoPatch whole cell mode, room temperature; for inhibition at 1 µM: read-out: Kv 1.3% Inhibition at 1 μM
T1 construct: expressed in transfected cells; host or cells: stably transfected cells
T1 sequence (P22001 whole entry): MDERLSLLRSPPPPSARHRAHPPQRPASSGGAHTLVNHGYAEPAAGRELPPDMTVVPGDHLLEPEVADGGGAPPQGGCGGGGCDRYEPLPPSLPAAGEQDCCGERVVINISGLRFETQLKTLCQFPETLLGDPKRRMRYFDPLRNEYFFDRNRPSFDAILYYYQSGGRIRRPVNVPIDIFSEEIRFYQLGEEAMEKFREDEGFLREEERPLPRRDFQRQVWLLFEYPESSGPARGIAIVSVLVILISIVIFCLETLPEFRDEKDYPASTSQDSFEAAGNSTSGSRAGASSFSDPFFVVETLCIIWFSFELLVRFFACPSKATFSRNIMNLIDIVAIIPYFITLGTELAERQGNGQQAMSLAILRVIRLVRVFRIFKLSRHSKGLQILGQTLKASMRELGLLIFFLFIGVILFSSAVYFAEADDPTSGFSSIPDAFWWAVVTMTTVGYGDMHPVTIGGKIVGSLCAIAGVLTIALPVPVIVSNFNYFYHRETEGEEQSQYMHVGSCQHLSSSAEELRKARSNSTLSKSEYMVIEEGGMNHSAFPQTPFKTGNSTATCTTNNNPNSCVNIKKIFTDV
Description: Kv1.3 Autopatch Electrophysiology Method
(§1) Cells stably transfected with cDNA for human Kv1.3 (in pcDNA3.1) were grown in Ex-cell 302 serum-free medium for CHO cells, supplemented with 10 μl/ml [100×] glutamine, 500 μg/ml G418 (gentimicin), and 1% HT supplement (50×, hypoxanthine and thymidine). Compounds were tested on these cells using the AutoPatch technology in whole cell mode.
The external bathing solution contained (in mM): 150 NaCl, 10 KCl, 1 MgCl2, 3 CaCl2, 10 HEPES, pH 7.4 with NaOH. Patch pipettes were filled with an electrode solution of composition (in mM): 100 K-Gluconate, 20 KCl, 1 MgCl2, 1 CaCl2, 10 HEPES, 11 EGTA, 5 ATP—Na2, 2 Glutathione pH 7.2 with KOH.
(§2) Compounds were dissolved in DMSO (100%) and made up in the external bather at a concentration of 1 μM. All experiments were conducted at room temperature (22-24° C.).
(§3) A cell suspension (10 ml), with a density of 100,000 cells/ml, was aliquoted into a 15 ml centrifuge tube and transferred to an incubator (37° C., 5% CO2) for approximately one hour before use. Following 60 min incubation, a tube was taken and centrifuged at 1000 rpm for 4 mins at room temperature. 9.5 ml supernatant was thence discarded, leaving a cell pellet at the bottom of the tube. The pellet was then resuspended using 100 μl of cold (4° C.), filtered (0.22 μm), 0.2% BSA/bather solution (0.02 g BSA/10 ml bather). The bottom of the tube was manually agitated gently until the solution became cloudy with cells. The 100 μl cell resuspension solution was then stored on the bench at 4° C. (using a Peltier-based temperature control device) until used.
(§4) A length of capillary glass (1B150F-4, WPI) was dipped into the cell suspension solution, such that ˜3 cm column of fluid was taken up by capillary action. A Ag/AgCl wire was dropped into the non-dipped end of the capillary also. The outside of the solution-filled end of the capillary was then dried and the capillary was loaded into the AutoPatch™. Borosilicate glass patch pipettes (from 1.5 mm OD, thin-walled filamented, GC150-TF capillary glass, Harvard) were pulled using a DMZ pipette puller (Zeitz Instruments), and were back-filled using the internal pipette solution, being careful that no bubbles remain at the tip or in the body of the pipette. Patch pipettes typically had resistances of 2.3-3.5 MΩ. Once filled, the pipette tip and a proportion of the shaft (˜15 mm) were dipped into Sigmacote (Sigma). The recording pipette was then loaded into the AutoPatch™. Automated patch-clamping was initiated by the operator, but thereafter AutoPatch.exe continued the experiment providing that pre-set conditions and criteria were satisfied.
(§5) Whole cell patch-clamp recordings were made using the AutoPatch™ rig, which incorporated an EPC9 or EPC10 amplifier (HEKA, Germany) under control of Pulse software (v8.54 or v8.76, HEKA, Germany), a motion controller with 2 translators (Newport, UK), valve controller (VF1) and a c-level suction device all at room temperature (22-24° C.). This equipment was completely under the control of AutoPatch.exe and operator intervention was only made when there was a requirement to refill the drug reservoirs or to prevent the loss of a cell due to a technical error. Cells with an Rseries greater than 18 MΩ were discounted from the experiment.
(§6) Qualification stages prior to perfusion and drug application ensured that the observed current met the criteria for the experiment. Only those cells with an IK>400 pA were used for experiments. Cells were continuously perfused with external solution at a flow rate of 1.8-2 ml/minute. […] Online analysis of the hKv1.3 current during the application of compounds was performed by the AutoPatch™ software. Voltage-step protocols and analysis of data was performed as described for conventional electrophysiology.
(§7) Electrophysiology voltage-step protocols and analysis of data was performed as follows. Data was sampled at 5 kHz, and filtered with a −3 dB bandwidth of 2.5 kHz. Cells were held at a voltage of −80 mV. […]

human Kv1.5 = target: T2, human Kv1.5 (Homo sapiens, UniProt P22460); assay: Kv1.5 Autopatch Electrophysiology; type: cell-based; conditions: 1 μM compound, CHO cells stably transfected with human Kv1.5, AutoPatch whole cell mode, room temperature; for inhibition at 1 µM: read-out: Kv 1.5% Inhibition at 1 μM
T2 construct: expressed in transfected cells; host or cells: stably transfected cells
T2 sequence (P22460 whole entry): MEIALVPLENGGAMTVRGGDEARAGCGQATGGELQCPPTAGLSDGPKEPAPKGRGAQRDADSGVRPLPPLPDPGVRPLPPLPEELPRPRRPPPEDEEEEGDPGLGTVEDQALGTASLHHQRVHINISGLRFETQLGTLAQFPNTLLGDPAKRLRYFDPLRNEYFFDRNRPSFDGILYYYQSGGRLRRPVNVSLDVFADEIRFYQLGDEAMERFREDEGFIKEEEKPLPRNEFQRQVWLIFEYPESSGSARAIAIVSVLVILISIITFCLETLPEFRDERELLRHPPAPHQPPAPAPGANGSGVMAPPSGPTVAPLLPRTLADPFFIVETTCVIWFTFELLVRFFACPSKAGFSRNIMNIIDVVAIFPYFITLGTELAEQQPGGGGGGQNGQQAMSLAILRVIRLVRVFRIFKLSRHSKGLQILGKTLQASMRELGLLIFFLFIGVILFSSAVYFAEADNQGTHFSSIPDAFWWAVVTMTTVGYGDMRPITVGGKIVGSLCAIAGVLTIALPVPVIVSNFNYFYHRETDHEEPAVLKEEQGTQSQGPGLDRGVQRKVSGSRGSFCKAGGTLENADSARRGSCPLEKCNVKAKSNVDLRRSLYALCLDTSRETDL
Description: Kv1.5 Autopatch Electrophysiology Method
as §1, with “Kv1.5” for “Kv1.3”, “pEF6::VA-His-TOPO)” for “pcDNA3.1)”, “5” for “500”, “blasticidin” for “G418 (gentimicin),”
The external bathing solution contained (in mM): 150 NaCl, 10 KCl, 1 MgCl2, 3 CaCl2, 10 HEPES, pH 7.4 with NaOH. Patch pipettes were filled with an electrode solution of composition (in mM): 160 KCl, 0.5 MgCl2, 10 HEPES, 1 EGTA, pH 7.4 with KOH.
as §2, §3, §4, §5
as §6, with “IK>500” for “IK>400”, “hKv1.5” for “hKv1.3”
as §7

inhibition at 1 µM (human Kv1.3) | inhibition at 1 µM (human Kv1.5) | Kv 1.3% Inhibition at 1 μM (human Kv1.3) | Kv 1.5% Inhibition at 1 μM (human Kv1.5) | Compound
76.9% | 85.3% |  |  | c1ccc(-c2csc3ccnc(NCc4ccc5c(c4)OCCO5)c23)cc1 [Example 18, (2,3-Dihydro-benzo[1,4]dioxin-6-ylmethyl)-(3-phenyl-thieno[3,2-c]pyridin-4-yl)-amine]
12.6% | 33.3% |  |  | Cc1ccc(-c2csc3c(-c4ccccc4O)cnc(NCc4ccccc4)c23)cc1 [Example 35, 2-(4-Benzylamino-3-p-tolyl-thieno[3,2-c]pyridin-7-yl)-phenol]
72.7% | 91.9% |  |  | COc1cccc(-c2csc3ccnc(NCc4ccco4)c23)c1 [Example 28, Furan-2-ylmethyl-[3-(3-methoxy-phenyl)-thieno[3,2-c]pyridin-4-yl]-amine]
90.3% | 81.2% |  |  | c1csc(CNc2nccc3scc(-c4ccc5c(c4)OCO5)c23)c1 [Example 16, (3-Benzo[1,3]dioxol-5-yl-thieno[3,2-c]pyridin-4-yl)-thiophen-2-ylmethyl-amine]
24.1% | 14.5% |  |  | Cc1ccc(-c2csc3c(-c4ccc(N(C)C)cc4)cnc(NCc4ccccc4)c23)cc1 [Example 42, Benzyl-[7-(4-dimethylamino-phenyl)-3-p-tolyl-thieno[3,2-c]pyridin-4-yl]-amine]
58.1% | 70.5% |  |  | c1ccc(CNc2nccc3scc(-c4ccc5c(c4)OCO5)c23)cc1 [Example 25, (3-Benzo[1,3]dioxol-5-yl-thieno[3,2-c]pyridin-4-yl)-benzyl-amine]
83.5% | 90.2% |  |  | c1cc2scc(-c3ccc4c(c3)OCO4)c2c(NCc2ccc3c(c2)OCCO3)n1 [Example 20, (3-Benzo[1,3]dioxol-5-yl-thieno[3,2-c]pyridin-4-yl)-(2,3-dihydro-benzo[1,4]dioxin-6-ylmethyl)-amine]
41.3% | 84.8% |  |  | Cc1ccc(-c2csc3c(-c4cccc(C(=O)O)c4)cnc(NCc4ccccc4)c23)cc1 [Example 38, 3-(4-Benzylamino-3-p-tolyl-thieno[3,2-c]pyridin-7-yl)-benzoic acid]
81.2% | 90.2% |  |  | Cc1ccc(-c2csc3ccnc(NCc4ccccc4)c23)cc1 [Example 24, Benzyl-(3-p-tolyl-thieno[3,2-c]pyridin-4-yl)-amine]
91.2% | 81.9% |  |  | c1ccc(-c2csc3ccnc(NCc4cccs4)c23)cc1 [Example 14, (3-Phenyl-thieno[3,2-c]pyridin-4-yl)-thiophen-2-ylmethyl-amine]
66.2% | 86.1% |  |  | Cc1ccc(-c2csc3ccnc(NCc4ccco4)c23)cc1 [Example 29, Furan-2-ylmethyl-(3-p-tolyl-thieno[3,2-c]pyridin-4-yl)-amine]
58% | 79.6% |  |  | COc1cccc(-c2csc3ccnc(NCc4ccccc4)c23)c1 [Example 23, Benzyl-[3-(3-methoxy-phenyl)-thieno[3,2-c]pyridin-4-yl]-amine]
23.7% | 50.8% |  |  | Cc1cc2scc(-c3ccccc3)c2c(NCc2ccccc2)n1 [Example 50, Benzyl-(6-methyl-3-phenyl-thieno[3,2-c]pyridin-4-yl)-amine]
15.7% | 39.9% |  |  | Cc1ccc(-c2csc3c(-c4ccc(O)cc4)cnc(NCc4ccccc4)c23)cc1 [Example 37, 4-(4-Benzylamino-3-p-tolyl-thieno[3,2-c]pyridin-7-yl)-phenol]
91.9% | 87.2% |  |  | Fc1ccc(-c2csc3ccnc(NCc4cccs4)c23)cc1 [Example 15, [3-(4-Fluoro-phenyl)-thieno[3,2-c]pyridin-4-yl]thiophen-2-ylmethyl-amine]
8.1% | 25.6% |  |  | Cc1ccc(-c2csc3c(-c4ccccc4)cnc(NCc4ccccc4)c23)cc1 [Example 34, Benzyl-(7-phenyl-3-p-tolyl-thieno[3,2-c]pyridine-4-yl)-amine]
13.6% | 26.3% |  |  | Cc1ccc(-c2csc3c(-c4ccccc4F)cnc(NCc4ccccc4)c23)cc1 [Example 43, Benzyl-[7-(2-fluoro-phenyl)-3-p-tolyl-thieno[3,2-c]pyridin-4-yl]-amine]
61.5% | 77.4% |  |  | c1ccc(CNc2nccc3scc(-c4ccccc4)c23)cc1 [Example 21, Benzyl-(3-phenyl-thieno[3,2-c]pyridin-4-yl)-amine]
29.6% | 18.8% |  |  | Cc1ccc(-c2csc3c(-c4cccc(F)c4)cnc(NCc4ccccc4)c23)cc1 [Example 44, Benzyl-[7-(3-fluoro-phenyl)-3-p-tolyl-thieno[3,2-c]pyridin-4-yl]-amine]
83.2% | 89.4% |  |  | COc1cccc(-c2csc3ccnc(NCc4cccs4)c23)c1 [Example 13, [3-(3-Methoxy-phenyl)-thieno[3,2-c]pyridin-4-yl]-thiophen-2-ylmethyl-amine]
48.4% | 80.4% |  |  | c1ccc(-c2csc3ccnc(NCc4ccco4)c23)cc1 [Example 26, Furan-2-ylmethyl-(3-phenyl-thieno[3,2-c]pyridin-4-yl)amine]
50.1% | 90% |  |  | Cc1ccc(-c2csc3c(-c4cccnc4)cnc(NCc4ccccc4)c23)cc1 [Example 39, Benzyl-(7-pyridin-3-yl-3-p-tolyl-thieno[3,2-c]pyridin-4-yl)-amine]
45.9% | 70.4% |  |  | Fc1ccc(-c2csc3ccnc(NCc4ccco4)c23)cc1 [Example 27, [3-(4-Fluoro-phenyl)-thieno[3,2-c]pyridin-4-yl]-furan-2-ylmethyl-amine]
49.9% | 36.3% |  |  | Cc1ccc(-c2csc3c(-c4ccncc4)cnc(NCc4ccccc4)c23)cc1 [Example 40, Benzyl-(7-pyridin-4-yl-3-p-tolyl-thieno[3,2-c]pyridin-4-yl)-amine]
 |  | 71.8% | 78.4% | Cc1cccnc1CNc1nccc2scc(-c3ccccc3)c12 [Example 31, (3-Methyl-pyridin-2-ylmethyl)-(3-phenyl-thieno[3,2-c]pyridin-4-yl)-amine]
